We go through 26 compounds from patent US20200392116A1, “SUBSTITUTED HETEROCYCLES AS c-MYC TARGETING AGENTS” (NORTHWESTERN UNIVERSITY, priority 2019, published 2020).

This assay can be described thus: Potency code of Table 2 (assay not stated).

On to `CN/N=C(/C)c1ccc(-c2c(OCc3ccc(Cl)cc3)ccc(-c3cc(C(F)(F)F)n(C)n3)c2O)cc1` [NUCC-0198397], for which the Potency code entry is “+ (>40 +)”. Next, `N#Cc1cccc(-c2c(OCc3ccc(Cl)cc3)ccc(-c3cc(C(F)(F)F)[nH]n3)c2O)c1` [NUCC-0198398]: “++++ (<10 ++++)”.

Take `Cn1nc(-c2ccc(OCc3ccc(Cl)cc3)c(-c3cccc(C#N)c3)c2O)cc1C(F)(F)F` [NUCC-0198400]: the Potency code result is recorded as “+ (>40 +)”. Next, `NC(=O)c1cccc(-c2c(OCc3ccc(Cl)cc3)ccc(-c3cc(C(F)(F)F)[nH]n3)c2O)c1` [NUCC-0198401]: “+ (>40 +)”; `Cn1nc(C(F)(F)F)cc1-c1ccc(OCc2ccc(Cl)cc2)c(-c2cccc(C(N)=O)c2)c1O` [NUCC-0198402]: “+ (>40 +)”. Regarding `CN/N=C(/C)c1cccc(-c2c(OCc3ccc(Cl)cc3)ccc(-c3cc(C(F)(F)F)[nH]n3)c2O)c1` [NUCC-0198403], the Potency code entry was “+ (>40 +)”. The result for `CN/N=C(\C)c1cccc(-c2c(OCc3ccc(Cl)cc3)ccc(-c3cc(C(F)(F)F)nn3C)c2O)c1` [NUCC-0198404] reads “+ (>40 +)”; that for `CN/N=C(\C)c1cccc(-c2c(OCc3ccc(Cl)cc3)ccc(-c3cc(C(F)(F)F)n(C)n3)c2O)c1` [NUCC-0198405], “+ (>40 +)”; that for `CCc1ccc(Oc2c(-c3ccc(O)cc3O)n[nH]c2C(F)(F)F)cc1` [NUCC-0198406], “++++ (<10 ++++)”.

In the case of `Cn1nc(C(F)(F)F)cc1-c1ccc(OCc2ccc(Cl)cc2)c(Br)c1O` [NUCC-0198407], the Potency code result was “+++ (10-30 +++)”. The result for `Cn1nc(-c2ccc(OCc3ccc(Cl)cc3)c(Br)c2O)cc1C(F)(F)F` [NUCC-0198408] reads “+ (>40 +)”; that for `Cn1nc(C(F)(F)F)cc1-c1ccc(OCc2ccc(Cl)cc2)c(-c2ccc(C(N)=O)cc2)c1O` [NUCC-0198409], “+ (>40 +)”. Next, `Cn1nc(C(F)(F)F)cc1-c1ccc(OCc2ccc(Cl)cc2)c(-c2ccccc2OC(F)(F)F)c1O` [NUCC-0198410]: “+ (>40 +)”; `CCc1ccc(Oc2c(-c3ccc(O)cc3O)nn(C)c2C(F)(F)F)cc1` [NUCC-0198411]: “+++ (10-30 +++)”. The result for `Cn1nc(C(F)(F)F)cc1-c1ccc(OCc2ccc(Cl)cc2)cc1O` [NUCC-0198412] reads “+ (>40 +)”; that for `CCOC(=O)c1cc(-c2ccc(OCc3ccc(Cl)cc3)c(-c3ccc(C#N)cc3)c2O)n[nH]1` [NUCC-0200489], “+ (>40 +)”. For the compound `Oc1c(-c2cc(C(F)(F)F)[nH]n2)ccc(OCc2ccc(Cl)cc2)c1Cc1ccccc1Cl` [NUCC-0200490], the Potency code entry is given as “+ (>40 +)”. `Oc1cc(Nc2ccc(Cl)cc2)ccc1-c1cc(C(F)(F)F)[nH]n1` [NUCC-0200491]: the Potency code entry is given as “++++ (<10 ++++)”.

For `Cn1nc(-c2ccc(Nc3ccc(Cl)cc3)cc2O)cc1C(F)(F)F` [NUCC-0200492], the Potency code entry was “+++ (10-30 +++)”. Next, `Oc1cc(NCc2ccc(Cl)cc2)ccc1-c1cc(C(F)(F)F)[nH]n1` [NUCC-0200493]: “+ (>40 +)”; `Cn1nc(-c2ccc(NCc3ccc(Cl)cc3)cc2O)cc1C(F)(F)F` [NUCC-0200494]: “+ (>40 +)”. As to `Oc1ccc(-c2cc(C(F)(F)F)[nH]n2)c(O)c1-c1cc(C(F)(F)F)cc(C(F)(F)F)c1` [NUCC-0200495], the Potency code entry is “++++ (<10 ++++)”.

For the compound `COc1ccc(-c2c(-c3ccc(O)cc3O)n[nH]c2C(F)(F)F)cc1OC` [NUCC-0200496], the Potency code result is “+ (>40 +)”. The result for `Nc1ccc(-c2cc(C(F)(F)F)[nH]n2)c(O)c1` [NUCC-0200497] reads “+ (>40 +)”; that for `Cn1nc(-c2ccc(N)cc2O)cc1C(F)(F)F` [NUCC-0200498], “+ (>40 +)”. Turning to `Oc1cc(OCc2ccc(Cl)cc2)ccc1-c1cc(C(F)(F)F)n(Cc2ccccc2)n1` [NUCC-0200499], the Potency code entry is given as “+ (>40 +)”.
